Reference: patent US12251370B2, “Small molecule inhibitors of the BfrB:Bfd interaction” (BOARD OF SUPERVISORS OF LOUISIANA STATE UNIVERSITY AND …, priority 2018, dated 2025)
Entries after “also recorded” stand apart in the source; their conditions may differ.

How the values were obtained:
P. aeruginosa = assay: Growth curves and IC50 determination in P. aeruginosa; type: cell-based, Pseudomonas aeruginosa (PAO1); conditions: Pseudomonas aeruginosa; M63 media; growth % from OD600 at 13 h; three independent experiments
Procedure: (§1) Pre-cultures (5 mL LB media) were grown for 12 h at 37° C. and 220 rpm in 50 mL conical tubes (VWR International, PA) covered with an air permeable membrane. The cells were then centrifuged at 4,000 rpm for 10 min, the resultant cell pellets washed twice in M63 media and then diluted in M63 media to OD600=0.01. Stock solutions (100 mM) of analog in DMSO were prepared weekly and stored at 4° C. Prior to initiating experiments in 96 well plates, the analog stock solution was serially diluted to make 10 mM or 1 mM working solutions in DMSO. A small volume of the appropriate working solution was transferred to a glass vial, diluted with DMSO to 30 μL, and then diluted to a final volume of 1.5 mL with pre-culture cell suspension with an OD600=0.01. The resultant cell suspension (200 μL) was transferred to a clear-bottom polystyrene 96 well plate (VWR), and incubated at 35° C. and 205 cpm for 13 h in an Epoch 2 microplate spectrophotometer (Biotek Instruments, Inc., Vermont). The growth curve in the presence of Ciprofloxacin was obtained in the same plate. […] MIC determinations were carried out using standard broth microdilution methods in 48 well plates and modified M63 media. Cells were incubated at 35° C.

A. baumannii = assay: Growth curves and IC50 determination in A. baumannii; type: cell-based, Acinetobacter baumannii (AB5075); conditions: Acinetobacter baumannii; AB5075; modified M63 media; 48 well-plates
Procedure: as §1
This idea was tested with A. baumanni AB5075, a highly virulent isolate, which has been proposed as a model strain for the evaluation of pathogenesis and antimicrobial treatments.^66.

[1] = test system: iron mobilization from BfrB in P. aeruginosa; assay: Imaging of iron stored in BfrB and analysis of total iron levels; type: cell-based, Pseudomonas aeruginosa; conditions: analog 125 μM, M63 + 4 μM Fe
Procedure: The resultant cell suspensions (5 mL) were mixed with a small volume of a 10 mM working solution of analog 16 in DMSO to give a 125 μM solution and 2% DMSO, or simply 2% DMSO (control). The conical tubes were covered with a sterile air permeable membrane and the cultures incubated at 35° C. and 120 rpm for 6, 9, 12, 15, 18, 21 and 24 h. Prior to separating the cells by centrifugation (4,000 rpm, 15 min), a 100 μL aliquot was withdrawn from each conical tube and serially diluted for plating and enumerating viable cells. The separated pellet was washed with 5 mL of PBS and frozen at −20° C. for subsequent analysis. The corresponding cell free supernatants were used for iron analysis in the spent media, as described below. […]
To determine the total iron levels of cells treated with analog 16 or DMSO only (control), 5 mL cultures were grown in M63 media supplemented with 4 μM iron, as described above, and analyzed at 12, 15, 21, 24, and 28 h. […] Cell pellets were washed twice with 10 mL of PBS and the total levels of cellular iron were measured using a published protocol.^18, 48 In brief, cell pellets were mixed with 500 μL of freshly prepared digestion reagent (1:1 v/v 1.2 N HCl and 4.5% w/v KMnO4 in water), thoroughly mixed by vortexing, and incubated at 65° C. for 4 h. […]

P. aeruginosa PAO1 = assay: Effect of analogs on the potency of fluoroquinolone antibiotics, strain PAO1; type: cell-based, Pseudomonas aeruginosa; conditions: PAO1
Procedure: (§2) The combined treatment was carried out similarly, ensuring that the final concentration of DMSO was 2%.

[2] = test system: P. aeruginosa clinical isolate MR60; assay: Effect of analog on ciprofloxacin potency, clinical isolate MR60; type: cell-based, Pseudomonas aeruginosa
Procedure: as §2

`O=C1NC(=O)c2c(NCCCc3cccc(O)c3)cccc21` [Analog 16, 4-((3-(3-Hydroxyphenyl)propyl)amino)isoindoline-1,3-dione] was tested, and the IC50 (P. aeruginosa) was 121 µM, the IC50 (A. baumannii) was 128 µM and the “iron mobilization from BfrB (native PAGE stained with Ferene S)” value [1] was “significant inhibition of iron mobilization from BfrB; also recorded: much slower (inhibited) mobilization of iron from BfrB”. The “viable cells, fold fewer than untreated control” value ([1]; all time points) was “approximately 2.5 fold”, the “% survival, fold lower relative to ciprofloxacin alone” value (P. aeruginosa PAO1; analog 16 125 μM + ciprofloxacin 0.25 μg/mL) was “approximately 50 fold” and the “cell survival, fold lower relative to fluoroquinolone alone” value (P. aeruginosa PAO1; analog 16 125 μM + levofloxacin 0.5 μg/mL) was “approximately 50 fold”. For the same compound, the “cell survival, fold lower relative to fluoroquinolone alone” value (P. aeruginosa PAO1; analog 16 125 μM + norfloxacin 0.9 μg/mL) was “approximately 50 fold”, the “survival relative to untreated control” value (P. aeruginosa PAO1; analog 16 only, 125 μM, 18 h) was ~30% and the “survival, fold lower relative to ciprofloxacin alone” value ([2]; analog 16 + ciprofloxacin) was “approximately 4 fold”. For the same compound, the survival ([2]; analog 16 + ciprofloxacin 1 μg/mL) was “ca. 10%” and the survival ([2]; analog 16 only, 125 μM) was “ca. 40%”.
